Molecular target: T1, GSG2 (Haspin) (Homo sapiens, UniProt Q8TF76)
T1 construct: purchased Thermo Fisher Scientific (Life Technologies) SelectScreen
Assay: SelectScreen Adapta
Type: biochemical
Outline: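 NU5455 was profiled across the SelectScreen Broad panel of kinase activity and binding assays. Z'LYTE reactions such as CSF1R ran at apparent Km ATP, while the Adapta CAMK1 assay used ATP listed as 10. Values are given as percent.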

T1 sequence (Q8TF76 whole entry): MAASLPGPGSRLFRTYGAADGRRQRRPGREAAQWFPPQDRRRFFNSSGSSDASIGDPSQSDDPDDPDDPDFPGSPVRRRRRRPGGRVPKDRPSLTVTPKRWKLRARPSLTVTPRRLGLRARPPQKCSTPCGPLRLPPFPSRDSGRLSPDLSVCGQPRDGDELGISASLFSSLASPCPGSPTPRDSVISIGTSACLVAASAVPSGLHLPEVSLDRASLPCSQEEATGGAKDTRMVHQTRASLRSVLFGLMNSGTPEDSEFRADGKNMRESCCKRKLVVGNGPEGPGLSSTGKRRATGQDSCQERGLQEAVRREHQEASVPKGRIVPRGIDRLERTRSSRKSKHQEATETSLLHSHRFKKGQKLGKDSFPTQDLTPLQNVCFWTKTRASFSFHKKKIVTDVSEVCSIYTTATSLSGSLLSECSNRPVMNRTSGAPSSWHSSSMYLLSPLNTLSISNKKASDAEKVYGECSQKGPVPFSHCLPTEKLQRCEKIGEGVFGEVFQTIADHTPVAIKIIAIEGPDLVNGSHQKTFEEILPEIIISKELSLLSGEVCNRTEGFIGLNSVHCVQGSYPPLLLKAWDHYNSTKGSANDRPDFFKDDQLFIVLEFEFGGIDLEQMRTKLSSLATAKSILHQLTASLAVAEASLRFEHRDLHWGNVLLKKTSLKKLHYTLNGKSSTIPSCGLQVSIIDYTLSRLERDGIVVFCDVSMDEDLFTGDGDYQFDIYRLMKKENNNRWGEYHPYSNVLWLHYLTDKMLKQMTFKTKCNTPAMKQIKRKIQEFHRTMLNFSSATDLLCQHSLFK

## CN(C(=O)CN1CCOCC1)c1ccc2sc3c(-c4cccc5c(=O)cc(N6CC7CCC(C6)O7)oc45)cccc3c2c1 [NU5455]
  inhibition at 1 µM: -15%
